Read-outs that look alike come from different tables or passages of the source.
How the values were obtained:
[1] = molecular target: T1, Recombinant Human TMPRSS2 (Homo sapiens, UniProt O15393); assay: TMPRSS2 biochemical assay (Boc-Gln-Ala-Arg-AMC fluorogenic substrate)
T1 construct: human TMPRSS2 residues 106492, N-terminal 6x His-tag; 6x His-tag (N); purchased Cusabio CSB-YP023924HU; host or cells: yeast
Description: Inhibitors of TMPRSS2 were tested using a high throughput activity assay. […] TMPRSS2 (5 µl, 0.018 mg/ml) in assay buffer (50 mM Tris pH 8, 150 mM NaCl, 0.01% Tween20) was dispensed to that, using a BioRAPTR (Beckman Coulter), for a total assay volume of 5 µl.
After incubation at room temperature for 1 h, fluorescence was measured. […] Raw plate reads for each titration point were normalized relative to a positive control containing no enzyme (0% activity, full inhibition) and a negative control containing DMSO-only wells (100% activity, basal activity). Data normalization was performed using GraphPad Prism (GraphPad Software, San Diego, CA).
We employed the curve fitting algorithm available in the SciPy package (version 1.10.1)[61] to derive the Hill slope and the IC50 value, along with their corresponding error estimates.

[2] = tested on: pseudovirus bearing S protein of SARS-CoV-2 lineage B.1; assay: organism not typed; format: cell-based
[3] = tested on: pseudovirus bearing S protein of SARS-CoV-2 lineage B.1.617.2; assay: organism not typed; format: cell-based
[4] = tested on: pseudovirus bearing S protein of SARS-CoV-2 lineage EG.5.1; assay: organism not typed; format: cell-based; conditions: for IC50: Calu-3 cells
[5] = tested on: pseudovirus bearing S protein of SARS-CoV-2 lineage BA.2.86; assay: organism not typed; format: cell-based
[6] = tested on: pseudovirus bearing S protein of HCoV-229E; assay: organism not typed; format: cell-based
[7] = tested on: pseudovirus bearing S protein of SARS-CoV-1; assay: organism not typed; format: cell-based
[8] = tested on: pseudovirus bearing S protein of MERS-CoV; assay: organism not typed; format: cell-based
[9] = tested on: pseudovirus bearing VSV-G; assay: organism not typed; format: cell-based; conditions: Calu-3
[10] = Calu-3, read-out: mean inhibition

T1 sequence (O15393 106-492 limits assumed): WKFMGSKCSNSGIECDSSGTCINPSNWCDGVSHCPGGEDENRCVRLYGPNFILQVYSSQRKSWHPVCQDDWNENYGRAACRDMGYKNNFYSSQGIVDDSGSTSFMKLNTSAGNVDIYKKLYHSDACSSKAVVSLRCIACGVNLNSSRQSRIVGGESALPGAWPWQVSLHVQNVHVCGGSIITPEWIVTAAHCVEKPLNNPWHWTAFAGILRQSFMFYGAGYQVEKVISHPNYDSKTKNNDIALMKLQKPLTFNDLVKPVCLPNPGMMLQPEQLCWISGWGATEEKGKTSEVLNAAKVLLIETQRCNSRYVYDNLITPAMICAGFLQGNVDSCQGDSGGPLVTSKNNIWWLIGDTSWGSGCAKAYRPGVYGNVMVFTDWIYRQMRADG

CN(C)C(=O)COC(=O)Cc1ccc(OC(=O)c2ccc(NC(=N)N)cc2)cc1 [camostat]
inhibition at 0.000677404 µM ([1]; concentration 0.677404 nM): 13.8%
inhibition at 0.00203221 µM ([1]; concentration 2.03221 nM): 36.1%
inhibition at 0.00609663 µM ([1]; concentration 6.09663 nM): 68.3%
inhibition at 0.0182899 µM ([1]; concentration 18.2899 nM): 90.6%
inhibition at 0.0548697 µM ([1]; concentration 54.8697 nM): 102%
inhibition at 0.164609 µM ([1]; concentration 164.609 nM): 103%
inhibition at 0.493827 µM ([1]; concentration 493.827 nM): 105%
inhibition at 1.48148 µM ([1]; concentration 1481.48 nM): 105%
inhibition at 4.44444 µM ([1]; concentration 4444.44 nM): 104%
inhibition at 13.3333 µM ([1]; concentration 13333.3 nM): 104%
inhibition at 40 µM ([1]; concentration 40000 nM): 104%
inhibition at 0.00025 µM ([2]; Calu-3, B.1, concentration 0.25 nM): -1.94%
inhibition at 0.0025 µM ([2]; Calu-3, B.1, concentration 2.5 nM): 3.06%
inhibition at 0.025 µM ([2]; Calu-3, B.1, concentration 25 nM): 2.53%
inhibition at 0.25 µM ([2]; Calu-3, B.1, concentration 250 nM): 60.8%
inhibition at 2.5 µM ([2]; Calu-3, B.1, concentration 2500 nM): 89.4%
inhibition at 25 µM ([2]; Calu-3, B.1, concentration 25000 nM): 96.6%
IC50 ([2]; Calu-3 cells, read-out: IC50, pseudovirus cell entry B.1): 0.19 µM
inhibition at 0.00025 µM ([3]; Calu-3, B.1.617.2, concentration 0.25 nM): -0.882%
inhibition at 0.0025 µM ([3]; Calu-3, B.1.617.2, concentration 2.5 nM): 3.07%
inhibition at 0.025 µM ([3]; Calu-3, B.1.617.2, concentration 25 nM): 10.5%
inhibition at 0.25 µM ([3]; Calu-3, B.1.617.2, concentration 250 nM): 57.9%
inhibition at 2.5 µM ([3]; Calu-3, B.1.617.2, concentration 2500 nM): 90.4%
inhibition at 25 µM ([3]; Calu-3, B.1.617.2, concentration 25000 nM): 96.4%
IC50 ([3]; Calu-3 cells, read-out: IC50, pseudovirus cell entry B.1.617.2): 0.191 µM
inhibition at 0.00025 µM ([4]; Calu-3, EG.5.1, concentration 0.25 nM): 3.95%
inhibition at 0.0025 µM ([4]; Calu-3, EG.5.1, concentration 2.5 nM): -5.66%
inhibition at 0.025 µM ([4]; Calu-3, EG.5.1, concentration 25 nM): 19.1%
inhibition at 0.25 µM ([4]; Calu-3, EG.5.1, concentration 250 nM): 34.3%
inhibition at 2.5 µM ([4]; Calu-3, EG.5.1, concentration 2500 nM): 43.1%
inhibition at 25 µM ([4]; Calu-3, EG.5.1, concentration 25000 nM): 52.7%
IC50 ([4]; Fig. 4g, read-out: IC50 estimate, pseudovirus cell entry EG.5.1): 8.56 ± 6.54 µM
IC50 ([4]; read-out: IC50, EG.5.1-S protein-driven Calu-3 cell entry): 8.56 µM
inhibition at 0.00025 µM ([5]; Calu-3, BA.2.86, concentration 0.25 nM): 2.77%
inhibition at 0.0025 µM ([5]; Calu-3, BA.2.86, concentration 2.5 nM): 3.7%
inhibition at 0.025 µM ([5]; Calu-3, BA.2.86, concentration 25 nM): 24%
inhibition at 0.25 µM ([5]; Calu-3, BA.2.86, concentration 250 nM): 61.2%
inhibition at 2.5 µM ([5]; Calu-3, BA.2.86, concentration 2500 nM): 85.5%
inhibition at 25 µM ([5]; Calu-3, BA.2.86, concentration 25000 nM): 85.8%
IC50 ([5]; Calu-3 cells, read-out: IC50, pseudovirus cell entry BA.2.86): 0.148 µM
IC50 ([6]; Calu-3, read-out: IC50 estimate, pseudovirus cell entry 229E-S): 2.01 ± 0.177 µM
inhibition at 0.00025 µM [6, 10]: 1.18%
inhibition at 0.0025 µM [6, 10]: 7.64%
inhibition at 0.025 µM [6, 10]: 11.6%
inhibition at 0.25 µM [6, 10]: 30.5%
inhibition at 2.5 µM [6, 10]: 52.3%
inhibition at 25 µM [6, 10]: 73.8%
IC50 ([7]; Calu-3, read-out: IC50 estimate, pseudovirus cell entry SARS-1-S): 0.193 ± 0.0704 µM
inhibition at 0.00025 µM ([7]; Calu-3, concentration 0.25 nM): 3.15%
inhibition at 0.0025 µM ([7]; Calu-3, concentration 2.5 nM): 5.85%
inhibition at 0.025 µM ([7]; Calu-3, concentration 25 nM): 19.9%
inhibition at 0.25 µM ([7]; Calu-3, concentration 250 nM): 63.5%
inhibition at 2.5 µM ([7]; Calu-3, concentration 2500 nM): 76.2%
inhibition at 25 µM ([7]; Calu-3, concentration 25000 nM): 83.2%
IC50 ([8]; Calu-3, read-out: IC50 estimate, pseudovirus cell entry MERS-S): 0.189 ± 0.0123 µM
inhibition at 0.00025 µM ([8]; Calu-3, concentration 0.25 nM): 0.136%
inhibition at 0.0025 µM ([8]; Calu-3, concentration 2.5 nM): 2.04%
inhibition at 0.025 µM ([8]; Calu-3, concentration 25 nM): 13.3%
inhibition at 0.25 µM ([8]; Calu-3, concentration 250 nM): 57.4%
inhibition at 2.5 µM ([8]; Calu-3, concentration 2500 nM): 89.2%
inhibition at 25 µM ([8]; Calu-3, concentration 25000 nM): 95.7%
inhibition at 0.00025 µM ([9]; concentration 0.25 nM): 0.261%
inhibition at 0.0025 µM ([9]; concentration 2.5 nM): -1.2%
inhibition at 0.025 µM ([9]; concentration 25 nM): -0.393%
inhibition at 0.25 µM ([9]; concentration 250 nM): -0.191%
inhibition at 2.5 µM ([9]; concentration 2500 nM): -0.407%
inhibition at 25 µM ([9]; concentration 25000 nM): -1.53%

From publication PMC12307812 (Nature Communications, 2025)
